Source: US20170274014A1, “COMBINATIONS OF LOW, IMMUNE ENHANCING, DOSES OF MTOR INHIBITORS AND CARS” (Novartis AG, priority 2014, published 2017)
Values joined by “and” are separate entries in the source; they are usually repeats but may differ in a detail not shown here. Equal values may be shown once. Read-outs that look alike come from different tables or passages of the source.

Columns and labels:
[1] = tested on: influenza vaccine strains (H1N1 A/California/07/2009, H3N2 A/Victoria/210/2009, B/Brisbane/60/2008); experiment: Influenza vaccine strain titers after RAD001 dosing versus placebo; assay type: in vivo, human; details: 4 weeks after vaccination; RAD001 dosing cohorts; intention to treat population
Protocol: In FIG. 1A, the increase above baseline in influenza geometric mean titers to each of the 3 influenza vaccine strains (H1N1 A/California/07/2009, H3N2 A/Victoria/210/2009, B/Brisbane/60/2008) relative to the increase in the placebo cohort 4 weeks after vaccination is shown for each of the RAD001 dosing cohorts in the intention to treat population. […] FIG. 1B is a graph of the same data as in FIG. 1A for the subset of subjects with baseline influenza titers <=1:40.
RAD001 concentrations (1 hour post dose) were measured after subjects had been dosed for 4 weeks. All subjects who had pharmacokinetic measurements were included in the analysis set. The fold increase in geometric mean titers at 4 weeks post vaccination relative to baseline is shown on the y axis.

[2] = tested on: heterologous influenza strains (A/H1N1 strain A/New Jersey/8/76 and A/H3N2 strain A/Victoria/361/11); design: species or system human; details: in vivo
[3] = tested on: PD-1-positive CD4, CD8 and PD-1-negative CD4 T cells; design: species or system human; details: in vivo
[4] = tested on: H3N2 A/Victoria/210/2009; experiment: Hemagglutination inhibition titers after seasonal influenza vaccination, A/H3N2 vaccine strain; assay type: in vivo, human; details: for HI GMT A/H3N2, Baseline: 2 weeks prior to influenza vaccination; for HI GMT A/H3N2, Week 4: 4 weeks after influenza vaccination
Protocol: (§1) The trial was observer-blind because the placebo in the RAD001 0.5 mg daily and 20 mg weekly cohorts differed slightly from the RAD001 tablets in those cohorts. […] The treatment duration for all cohorts was 6 weeks during which time subjects underwent safety evaluations in the clinic every 2 weeks. After subjects had been dosed for 4 weeks, RAD001 steady state levels were measured pre-dose and at one hour post dose. After completing the 6 week course of study drug, subjects were given a 2 week drug free break to reverse any possible RAD001-induced immunosuppression, and then were given a 2012 seasonal influenza vaccination (Agrippal®, Novartis Vaccines and Diagnostics, Siena, Italy) containing the strains H1N1 A/California/07/2009, H3N2 A/Victoria/210/2009, B/Brisbane/60/2008. Four weeks after influenza vaccination, subjects had serum collected for influenza titer measurements. Antibody titers to the 3 influenza vaccine strains as well as to 2 heterologous strains (A/H1N1 strain A/New Jersey/8/76 and A/H3N2 strain A/Victoria/361/11) were measured by standard hemagglutination inhibition assay (Kendal, A P et al. (1982) Concepts and procedures for laboratory-based influenza surveillance. Atlanta: Centers for Disease Control and Prevention B17-B35). Levels of IgG and IgM specific for the A/H1N1/California/07/2009 were measured in serum samples taken before and 4 weeks after influenza vaccination as described previously (Spensieri, F. et al. (2013) Proc. Natl. Acad. Sci. USA 110:14330-14335). Results were expressed as fluorescence intensity.
(§2) The primary analysis of geometric mean titer ratios was done using a normal Bayesian regression model with non-informative priors. This model was fitted to each antibody titer on the log scale. The primary outcome in each model was the Day 84 measurement. The Day 63 measurement was included in the outcome vector. The model fitted using SAS 9.2 proc mixed with the prior statement. The covariance structure of the matrix was considered as unstructured (option type=UN). A flat prior was used. For the secondary analysis of seroconversion rates, logistic regression was used.
(§3) The ability of RAD001 to improve immune function in elderly volunteers was evaluated by measuring the serologic response to the 2012 seasonal influenza vaccine. The hemagglutination inhibition (HI) geometric mean titers (GMT) to each of the 3 influenza vaccine strains at baseline and 4 weeks after influenza vaccination are provided in Table 6. The primary analysis variable was the HI GMT ratio (4 weeks post vaccination/baseline).
(§4) Rates of seroconversion 4 weeks after influenza vaccination were also evaluated. Seroconversion was defined as the change from a negative pre-vaccination titer (i.e., HI titer <1:10) to post-vaccination HI titer ≧1:40 or at least 4-fold increase from a non-negative (≧1:10) pre-vaccination HI titer.

[5] = tested on: B/Brisbane/60/2008; experiment: Hemagglutination inhibition titers after seasonal influenza vaccination, B vaccine strain; assay type: in vivo, human; details: for HI GMT B, Baseline: 2 weeks prior to influenza vaccination; for HI GMT B, Week 4: 4 weeks after influenza vaccination
Protocol: as §1, §2, §3, §4

[6] = tested on: A/H1N1 strain A/New Jersey/8/76; assay type: in vivo, human
[7] = tested on: A/H1N1/California/07/2009; experiment: Serum anti-influenza IgG and IgM levels before and 4 weeks after vaccination; assay type: in vivo, human; details: RAD001 vs placebo treated cohorts
Protocol: as §1, with “After completing the 6 week course of study drug, subjects were given a 2 week drug free break to reverse any possible RAD001-induced immunosuppression, and then were given a 2012 seasonal influenza vaccination (Agrippal®, Novartis Vaccines and Diagnostics, Siena, Italy) containing the strains H1N1 A/California/07/2009, H3N2 A/Victoria/210/2009, B/Brisbane/60/2008. Four weeks after influenza vaccination, subjects had serum collected for influenza titer measurements.” left out

[8] = tested on: PD-1 positive CD4 and CD8 T cells; design: species or system human; details: in vivo
[9] = tested on: NALM6-luc tumors; experiment: Growth of NALM6-luc tumors in NSG mice; assay type: in vivo; details: daily oral dosing of RAD001 alone
[10] = Intention to Treat Population, 0.5 mg, N = 48
[11] = Intention to Treat Population, 5 mg, N = 49
[12] = Intention to Treat Population, 20 mg, N = 48
[13] = Subjects with Baseline Titers <=40, 5 mg
[14] = Subjects with Baseline Titers <=40, 20 mg

## CO[C@H]1C[C@@H]2CC[C@@H](C)[C@@](O)(O2)C(=O)C(=O)N2CCCC[C@H]2C(=O)O[C@H]([C@H](C)C[C@@H]2CC[C@@H](OCCO)[C@H](OC)C2)CC(=O)[C@H](C)/C=C(\C)[C@@H](O)[C@@H](OC)C(=O)[C@H](C)C[C@H](C)/C=C/C=C/C=C/1C [RAD001, (1R,9S,12S,15R,16E,18R,19R,21R,23S,24E,26E,28E,30S,32S,35R)-1,18-dihydroxy-12-{(1R)-2-[(1S,3R,4R)-4-(2-hydroxyethoxy)-3-methoxycyclohexyl]-1-methylethyl}-19,30-dimethoxy-15,17,21,23,29,35-hexamethyl-11,36-dioxa-4-aza-tricyclo[30.3.1.04,9]hexatriaconta-16,24,26,28-tetraene-2,3,10,14,20-pentaone]
[1]
  increase above baseline in influenza geometric mean titers to the 3 influenza vaccine strains relative to placebo: increase in titers
[2]
  increase above baseline in influenza geometric mean titers to 2 heterologous influenza strains relative to placebo: increase in titers
[3]
  decrease in PD-1+ CD4 T cells, pooled RAD cohort compared to placebo: 30.2%
  decrease in PD-1-positive CD4 T cells as compared to placebo cohort: −37.1-−28.5%
  decrease in PD-1-positive CD4 T cells, pooled RAD cohort compared to placebo: 32.7%
  decrease in PD-1-positive CD8 T cells as compared to placebo cohort: −43.3-−38.5%
  decrease in PD-1-positive CD8 T cells, pooled RAD001 cohort compared to placebo: 37.4% and 41.4%
  increase in PD-1-negative CD4 T cells as compared to placebo cohort: 3.0-4.9%
[4]; 0.5 mg daily, N = 50
  HI GMT ratio A/H3N2 (week 4 post vaccination/baseline): 2.1
  HI GMT A/H3N2, Baseline: 106.8
  HI GMT A/H3N2, Week 4: 194.4
[4]; 5 mg weekly, N = 49
  HI GMT ratio A/H3N2 (week 4 post vaccination/baseline): 2.0
  HI GMT A/H3N2, Baseline: 126.04
  HI GMT A/H3N2, Week 4: 223.0
[4]; 20 mg weekly, N = 49
  HI GMT ratio A/H3N2 (week 4 post vaccination/baseline): 2.1
  HI GMT A/H3N2, Baseline: 137.1
  HI GMT A/H3N2, Week 4: 223.0
[4]; [10]
  Percent of subjects with seroconversion to influenza H3N2 4 weeks after vaccination: 27%
[4]; [11]
  Percent of subjects with seroconversion to influenza H3N2 4 weeks after vaccination: 24%
[4]; [12]
  Percent of subjects with seroconversion to influenza H3N2 4 weeks after vaccination: 25%
[4]; Subjects with Baseline Titers <=40, 0.5 mg
  Percent of subjects with seroconversion to influenza H3N2 4 weeks after vaccination: 64%
[4]; [13]
  Percent of subjects with seroconversion to influenza H3N2 4 weeks after vaccination: 53%
[4]; [14]
  Percent of subjects with seroconversion to influenza H3N2 4 weeks after vaccination: 71%
[5]; 0.5 mg daily, N = 50
  HI GMT ratio B (week 4 post vaccination/baseline): 2.5
  HI GMT B, Baseline: 44.2
  HI GMT B, Week 4: 98.4
[5]; 5 mg weekly, N = 49
  HI GMT ratio B (week 4 post vaccination/baseline): 2.2
  HI GMT B, Baseline: 64.8
  HI GMT B, Week 4: 117.3
[5]; 20 mg weekly, N = 49
  HI GMT ratio B (week 4 post vaccination/baseline): 2.1
  HI GMT B, Baseline: 58.0
  HI GMT B, Week 4: 99.2
[5]; [10]
  Percent of subjects with seroconversion to influenza B 4 weeks after vaccination: 27%
[5]; [11]
  Percent of subjects with seroconversion to influenza B 4 weeks after vaccination: 22%
[5]; [12]
  Percent of subjects with seroconversion to influenza B 4 weeks after vaccination: 19%
[5]; Subjects with Baseline Titers <=40, 0.5 mg, * p < 0.05 vs placebo
  Percent of subjects with seroconversion to influenza B 4 weeks after vaccination: 40* Percent
[5]; [13]
  Percent of subjects with seroconversion to influenza B 4 weeks after vaccination: 33%
[5]; [14]
  Percent of subjects with seroconversion to influenza B 4 weeks after vaccination: 28%
[6]; 0.5 mg daily
  Percentage of subjects who seroconvert to heterologous A/H1N1 strain A/NewJersey/8/76 4 weeks after seasonal influenza vaccination: 17%
[6]; 5 mg weekly
  Percentage of subjects who seroconvert to heterologous A/H1N1 strain A/NewJersey/8/76 4 weeks after seasonal influenza vaccination: 16%
[6]; 20 mg weekly
  Percentage of subjects who seroconvert to heterologous A/H1N1 strain A/NewJersey/8/76 4 weeks after seasonal influenza vaccination: 8%
[6]; RAD001 vs placebo cohorts
  Increase in the HI GMT ratio for the heterologous strain: higher in the RAD001 as compared to placebo cohorts
[7]
  Post-vaccination anti-influenza IgM and IgG levels: did not differ between RAD001 and placebo treated cohorts
[8]
  Decrease in PD-1 positive CD4 T cells compared to placebo cohort: 30.2% and 32.7%
  Decrease in PD-1 positive CD8 T cells compared to placebo cohort: 37.4% and 41.4%
  Percentage of CD4 PD-1 positive T cells: decreased from baseline
  Percentage of CD8 PD-1 positive cells: decreased from baseline
  Percentage of PD-1 negative CD4 T cells: increased
[9]
  Impact on the growth of NALM6-luc tumors: did not have an impact
